Entries after “also recorded” stand apart in the source; their conditions may differ. Read-outs that look alike come from different tables or passages of the source.
Legend:
OXA-58 = target: T1, OXA-58 (Acinetobacter baumannii, UniProt Q2TR58); assay: Inhibition of other OXA enzymes (nitrocefin reporter): OXA-58; assay type: biochemical
T1 construct: His-tag (N, cleaved yes); made in house; host or cells: E. coli BL21 (DE3), pET28a
Protocol: (§1) Compounds were tested for inhibition of a given OXA enzyme from hydrolyzing nitrocefin using a Tecan plate reader. […] A control with no compound was included in each run. For each compound concentration, the velocity of nitrocefin hydrolysis was determined at 482 nm and fit to the Morrison equation. […] The average Ki of separate experiments, each of which consisted of duplicate runs, is reported and error was quantified as the standard deviation.
(§2) The high sequence diversity of class D β-lactamases has made it difficult to find a class-wide inhibitor. The inhibition activity of CDD-97 was tested against other OXA-enzymes of varying sequence identity, to assess its spectrum of activity (Table 2). OXA-10 is regarded as the canonical OXA, however it is not a major clinical threat as it mainly hydrolyzes penicillins. OXA-58 is another carbapenemase unable to hydrolyze extended-spectrum cephalosporins like OXA-48. Both OXA-48 and OXA-58 are predominantly found in gram-negative bacteria, however OXA-48 is prevalent in the Enterobacteriaceae family (mainly Klebsiella pneumoniae), while OXA-58 is found in the Moraxellaceae family (mainly Acintobacter baumannii). While K. pneumoniae is more rampant in the clinics and most OXA-mediated carbapenem is due to OXA-48, A. baumannii nosocomial infections are a growing issue. OXA-163 is an OXA-48 like enzyme also prevalent in Enterobacteriaceae. […]

E. coli MG1655OXA-48 = assay: Bacterial susceptibility (MIC, broth microdilution) of E. coli expressing OXA-48; assay type: cell-based; conditions: for MIC: Escherichia coli
Protocol: Bacterial susceptibility was specifically tested using minimum inhibitory concentration assays. Susceptibility assays were performed with E. coli strains using broth in a microplate set up. Two-fold dilutions of antibiotic and/or inhibitor were used. For susceptibility tests, bacterial strains were transformed with plasmids containing OXA-48 with its endogenous signal sequence for periplasmic migration (cloned into pTP123 vector) (Majiduddin & Palzkill, 2003, Antimicrob. Agents Chemother. 47:1062-1067). pTP123 was cut with XbaI and SacI and the linearized fragment was assembled using Gibson assembly (New England Biolabs, Ipswich, MA) its signal sequence cloned in by using Gibson assembly. Bacteria were grown in Mueller-Hinton broth with 12.5 μg/mL chloramphenicol (plasmid marker) overnight. An overnight culture was diluted 1:10^4 into the final well solutions (100 uL total) and incubated for 16-18 hours. After incubation, microplates were read using a Tecan plate reader at absorbance 600. Growth was objectively defined as yielding an absorbance ≥2 times the absorbance of the negative control (media and no culture). Experiments were repeated with new bacterial inoculums each time.
Effective β-lactamase inhibitors synergize with β-lactam antibiotics and ultimately lower the minimum inhibitory concentration (MIC) of antibiotic needed to kill the bacteria. MIC studies were performed with ampicillin (AMP), a β-lactam antibiotic readily hydrolyzed by OXA-48, against E. coli strain MG1655 expressing OXA-48 (MG1655OXA-48). The OXA-48 plasmid construct contained the endogenous signal sequence of OXA-48 for secretion to the periplasm, which was expressed under a trc-promoter, allowing leaky expression in the absence of IPTG inducer. All MICs were performed by broth microdilution with 2-fold dilutions of antibiotic and/or inhibitor (FIG. 6A). The ampicillin (AMP) and imipenem (IMP) MICs were separately determined for a range of CDD-97 and avibactam concentrations. […] In the absence of bacteria, the media (Mueller Hinton) gives an absorbance reading of 0.04 so absorbance readings greater than or equal to two-fold the control were considered bacterial growth. […] CDD-97 was tested for its synergistic ability by determining AMP MICs with a range of CDD-97 concentrations (up to 256 μg/ml).
Impermeability of the outer membrane to small molecules is a major challenge for the development of therapeutics for Gram-negative bacterial infections. β-lactamases, including OXA-48, reside in the periplasmic space and so inhibitors must traverse the outer membrane to be effective. To determine whether low permeability caused the poor in vivo activity of CDD-97, an accumulation assay (Richter, et al., 2017, Nature 545:299-304) was performed to quantify the amount of CDD-97 present in E. coli cells after incubation. In the assay, tetracycline was used as a positive control while fusidic acid and clindamycin were used as negative controls (Richter, et al., 2017, Nature 545:299-304). Controls and CDD-97 were separately incubated with wildtype E. coli (MG1655) cells and then these cells were centrifuged through silicone oil to separate free, unaccumulated compound from the cell pellet. Cell lysates were collected by freeze-thawing and analyzed by mass spectrometry to quantify the amount of accumulated compound. Compared to tetracycline, CDD-97 was present in cells at 20-fold lower levels (FIG. 6B). […] The finding that CDD-97 accumulates inefficiently across the outer membrane was also examined by adding sub-lethal concentrations of colistin to the ampicillin/CDD-97 MIC assays. Colistin is known to disrupt the outer membrane and enhance permeability in E. coli. If the outer membrane is a barrier for CDD-97, it was predicted that the addition of sub-lethal concentrations of colistin would enhance the activity of CDD-97 against E. coli. […]

OXA-10 = OXA-10 (Pseudomonas aeruginosa, UniProt P14489); assay: Inhibition of other OXA enzymes (nitrocefin reporter): OXA-10; assay type: biochemical
OXA-10, sequence (P14489 20-266): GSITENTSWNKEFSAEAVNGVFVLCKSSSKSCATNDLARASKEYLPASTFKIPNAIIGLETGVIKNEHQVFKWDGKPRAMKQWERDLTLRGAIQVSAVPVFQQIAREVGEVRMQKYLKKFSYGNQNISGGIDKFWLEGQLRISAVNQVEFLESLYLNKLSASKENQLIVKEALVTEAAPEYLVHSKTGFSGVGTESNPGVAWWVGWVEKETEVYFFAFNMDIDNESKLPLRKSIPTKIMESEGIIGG
Protocol: as §1, §2

OXA-24 = target: T2, OXA-24 (Acinetobacter baumannii, UniProt Q8RLA6); assay: Inhibition of other OXA enzymes (nitrocefin reporter): OXA-24; assay type: biochemical
T2 construct: His-tag (N, cleaved yes); made in house; host or cells: E. coli BL21 (DE3), pET28a
T2 sequence (Q8RLA6 entry or part of it): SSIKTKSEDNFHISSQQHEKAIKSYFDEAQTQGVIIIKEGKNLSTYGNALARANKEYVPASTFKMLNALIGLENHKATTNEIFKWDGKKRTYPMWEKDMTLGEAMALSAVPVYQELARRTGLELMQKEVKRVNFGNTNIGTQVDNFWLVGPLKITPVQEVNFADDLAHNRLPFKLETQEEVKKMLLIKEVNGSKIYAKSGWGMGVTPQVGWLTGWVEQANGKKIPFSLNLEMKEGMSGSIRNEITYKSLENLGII
Protocol: as §1, §2

OXA-163 = OXA-163 (Klebsiella pneumoniae, UniProt Q6XEC0, DEL214-217/S212D); assay: Inhibition of other OXA enzymes (nitrocefin reporter): OXA-163; assay type: biochemical, Enterobacteriaceae
OXA-163, sequence (Q6XEC0 23-211, added parts left off, stated change not applied): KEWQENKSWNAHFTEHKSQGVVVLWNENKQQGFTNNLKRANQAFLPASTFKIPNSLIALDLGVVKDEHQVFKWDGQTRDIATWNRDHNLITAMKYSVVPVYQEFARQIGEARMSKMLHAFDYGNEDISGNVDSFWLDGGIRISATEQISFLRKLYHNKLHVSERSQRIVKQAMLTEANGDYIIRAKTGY
Protocol: as §1, §2

T1 sequence (Q2TR58 19-280): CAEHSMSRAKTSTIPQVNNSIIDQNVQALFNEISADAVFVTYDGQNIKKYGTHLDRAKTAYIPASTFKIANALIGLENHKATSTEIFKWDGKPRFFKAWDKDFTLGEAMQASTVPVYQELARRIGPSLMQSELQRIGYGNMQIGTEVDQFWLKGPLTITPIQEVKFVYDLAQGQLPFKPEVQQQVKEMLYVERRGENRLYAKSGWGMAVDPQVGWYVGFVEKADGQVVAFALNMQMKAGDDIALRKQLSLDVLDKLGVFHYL

CCOc1ccccc1N1CCN(c2ncnc(N3CCC(C(=O)O)CC3)n2)CC1 [CDD-97, 1-(4-(4-(2-ethoxyphenyl)piperazin-1-yl)-1,3,5-triazin-2-yl)piperidine-4-carboxylic acid]
Ki (OXA-58): 45 ± 0.8 µM | Ki fold less potent than against OXA-48 (OXA-58; OXA-58 vs OXA-48): about 100 fold | synergy with β-lactam antibiotics (effect on AMP/IMP MIC) in words (E. coli MG1655OXA-48; E. coli expressing OXA-48, CDD-97 up to 256 μg/mL, avibactam up to 4 μg/mL): did not synergize with ampicillin; also recorded: no synergy was seen between CDD-97 and imipenem; also recorded: colistin potentiates the activity of CDD-97; also recorded: synergizes weakly | MIC (E. coli MG1655OXA-48; MG1655OXA48, read-out: AMP MIC, with 4 μg/mL CDD-97): 1020 µg/mL | MIC (E. coli MG1655OXA-48; MG1655OXA48, read-out: AMP MIC, with 8 μg/mL CDD-97): 512 µg/mL | MIC (E. coli MG1655OXA-48; MG1655OXA48, read-out: AMP MIC, with 16 μg/mL CDD-97): 512 µg/mL | MIC (E. coli MG1655OXA-48; MG1655OXA48, read-out: AMP MIC, with 32 μg/mL CDD-97): 512 µg/mL | MIC (E. coli MG1655OXA-48; MG1655OXA48, read-out: AMP MIC, with 64 μg/mL CDD-97): 512 µg/mL | MIC (E. coli MG1655OXA-48; MG1655OXA48, read-out: AMP MIC, with 128 μg/mL CDD-97): 512 µg/mL | MIC (E. coli MG1655OXA-48; MG1655OXA48, read-out: AMP MIC, with 256 μg/mL CDD-97): 512 µg/mL | MIC (E. coli MG1655OXA-48; MG1655OXA48, read-out: AMP MICs, (+) CDD-97 (16 μg/mL), colistin 0 μg/mL): 1020 µg/mL | MIC (E. coli MG1655OXA-48; MG1655OXA48, read-out: AMP MICs, (+) CDD-97 (16 μg/mL), colistin 0.0625 μg/mL): 512 µg/mL | MIC (E. coli MG1655OXA-48; MG1655OXA48, read-out: AMP MICs, (+) CDD-97 (16 μg/mL), colistin 0.125 μg/mL): 1020 µg/mL | MIC (E. coli MG1655OXA-48; MG1655OXA48, read-out: AMP MICs, (+) CDD-97 (16 μg/mL), colistin 0.25 μg/mL): 256 µg/mL | MIC (E. coli MG1655OXA-48; MG1655OXA48, read-out: AMP MICs, (+) CDD-97 (16 μg/mL), colistin 0.5 μg/mL): 128 µg/mL | MIC (E. coli MG1655OXA-48; MG1655OXA48, read-out: AMP MICs, (+) CDD-97 (16 μg/mL), colistin 1 μg/mL): 8 µg/mL | MIC (E. coli MG1655OXA-48; MG1655OXA48, read-out: IMP MIC, with 4 μg/mL CDD-97): 0.625 µg/mL | MIC (E. coli MG1655OXA-48; MG1655OXA48, read-out: IMP MIC, with 8 μg/mL CDD-97): 0.312 µg/mL | MIC (E. coli MG1655OXA-48; MG1655OXA48, read-out: IMP MIC, with 16 μg/mL CDD-97): 0.312 µg/mL | MIC (E. coli MG1655OXA-48; MG1655OXA48, read-out: IMP MIC, with 32 μg/mL CDD-97): 0.312 µg/mL | MIC (E. coli MG1655OXA-48; MG1655OXA48, read-out: IMP MIC, with 64 μg/mL CDD-97): 0.312 µg/mL | MIC (E. coli MG1655OXA-48; MG1655OXA48, read-out: IMP MIC, with 128 μg/mL CDD-97): 0.312 µg/mL | MIC (E. coli MG1655OXA-48; MG1655OXA48, read-out: IMP MIC, with 256 μg/mL CDD-97): 0.625 µg/mL | Ki (OXA-10): 61 ± 27 µM | Ki fold less potent than against OXA-48 (OXA-10; OXA-10 vs OXA-48): about 100 fold | Ki (OXA-24): 14 ± 1 µM | Ki (OXA-163): 0.44 ± 0.02 µM

Source: US12286418B2, “Compounds and methods for treating or preventing bacterial infections” (priority 2019, dated 2025)
